# Measured values taken from patent publication US10941158B2, “Pyrazole ACC inhibitors and uses thereof” (Gilead Apollo, LLC, priority 2015, dated 2021).
# Where two headings read alike, the source gives them in different places.
# Key:
# [1] = test system: Fusarium moniliforme (Fm); experiment: Growth inhibition assay of fungal pathogens; format: cell-based; conditions: for IC90: Fusarium verticillioides, 48 h, read-out: Concentration at 90% Inhibition Fm
# Experimental: (§1) Compounds of the present invention were evaluated in a growth inhibition assay to determine the ability to control the growth of fungal pathogens, such as Botrtyis cinerea (Bc), Collectotrichum graminicola (Cg). Diplodia maydis (Dm), Fusarium moniliforme (Fm), Fusarium virguliforme (Fv), Phytophthora capsici (Pc), Rhizoctonia solani (Rs), and Septoria tritici (St). Compounds to be tested were dissolved in DMSO at 2.5 mg/ml to produce compound stock solutions (“stocks”). Stocks were diluted with DMSO by a five-fold dilution in a 96-well stock plate, and two sets of final concentrations of 50, 10, and 2 ppm or 2, 0.4, and 0.08 ppm were obtained in vitro. A set of positive controls was also prepared, with various concentrations of Soraphen (2, 0.4, and 0.08 ppm), Metalaxyl (1.1, 0.22, and 0.04 ppm), and Metconazole (2, 0.4, and 0.08 ppm or 0.2, 0.04, and 0.008 ppm) after the five-fold dilutions. Negative controls on each plate included 2% DMSO, water, and a blank (media+2% DMSO). Fungal spores were isolated from previously sub-cultured plates of Botrtyis cinerea (Bc). Collectotrichum graminicola (Cg). Diplodia maydis (Dm), Fusarium moniliforme (Fm), Fusarium virguliforme (Fv), Phytophthora capsici (Pc), and Septoria tritici (St). The isolated spores were diluted to individual concentrations with a 17% V8 liquid media. For Rhizoctonia solani (Rs) and Pythium irregulare, 1.5 mm mycelial plugs were used in place of spores and ¼ Potato Dextrose Broth (PDB) was used for dilution. The spore concentrations and plug sizes were based on growth curves generated at 48 hours for each pathogen. In a second 96-well plate, the spores or mycelial plugs, media, diluted compound solutions, and controls were combined. Once the compound was added, a true final concentration of compound in each well was measured by an OD600 reading, which adjusted for any compound precipitation that might have occurred in the well. Plate readings were repeated at both 24 and 48 hours. The blank negative control was used as a background subtraction. Additional visual ratings were performed at both 24 and 48 hours for checking on precipitation and confirming efficacy. Visual and OD600 ratings of the compounds at 48 hours were compared to the 2% DMSO negative control, and the percent of pathogen growth inhibition was determined based on those values.
# Septoria tritici (St) = experiment: Growth inhibition assay of fungal pathogens; format: cell-based; conditions: for IC90: Zymoseptoria tritici, read-out: Concentration at 90% Inhibition St
# Experimental: as §1
# [2] = test system: Fusarium virguliforme (Fv); experiment: Growth inhibition assay of fungal pathogens; format: cell-based; conditions: 48 h
# Experimental: as §1
# Botrtyis cinerea (Bc) = experiment: Growth inhibition assay of fungal pathogens; format: cell-based; conditions: 48 h, read-out: Concentration at 90% Inhibition Bc
# Experimental: as §1
# Rhizoctonia solani (Rs) = experiment: Growth inhibition assay of fungal pathogens; format: cell-based; conditions: 48 h, read-out: Concentration at 90% Inhibition Rs
# Experimental: as §1
# Diplodia maydis (Dm) = experiment: Growth inhibition assay of fungal pathogens; format: cell-based; conditions: Stenocarpella maydis, 48 h, read-out: Concentration at 90% Inhibition Dm
# Experimental: as §1
# [3] = test system: Collectotrichum graminicola (Cg); experiment: Growth inhibition assay of fungal pathogens; format: cell-based; conditions: 48 h, read-out: Concentration at 90% Inhibition Cg
# Experimental: as §1
# [4] = test system: Phytophthora capsici (Pc); experiment: Growth inhibition assay of fungal pathogens; format: cell-based; conditions: for IC90: Phytophthora capsici, read-out: Concentration at 90% Inhibition Pc
# Experimental: as §1
# C. krusei ATCC 6258 = experiment: Anti-Fungal (Candida) Activity Assay, broth microtiter MIC; format: cell-based; conditions: Pichia kudriavzevii, read-out: MIC C. krusei ATCC 6258
# Experimental: (§2) Compounds of the present invention were evaluated in an Anti-Fungal Activity Assay. An exemplary procedure for the assay, which measures the susceptibility of various Candida species to anti-fungal compounds, follows. Compounds to be tested (including fluconazole and amphotericin B) were dissolved in DMSO to obtain a solution having a concentration of 1 mg/mL. […] All species were grown from frozen stock by directly plating on to freshly prepared Sabouraud Dextrose agar (BD, Difco) and incubated overnight in ambient air at 35° C. for 24 h. A direct suspension was prepared in RPMI 1640+MOPS (Lonza, Biowhittaker) by taking individual colonies from the overnight cultures using sterile swabs soaked in sterile saline. The concentration of the suspension was determined using pre-determined standard curves. […] Broth microtiter MIC challenge plates were prepared following CLSI guidelines (M27-A3, Vol. 28 No. 14). The original CLSI guidelines focused on reading Candida MICs after 48 h of incubation. As reading after only 24 h offers a clear advantage of patient care, QC limits are being established for all drugs at 24 h. That being said there are no known interpretive breakpoints for amphotericin B at 24 h and the current fluconazole interpretive breakpoints are based on a 48 h reading. The MIC for the test compounds were recorded at 48 h. All MIC determinations were achieved by visually comparing the growth found in the antibiotic challenged wells to that of the growth control.
# C. albicans ATCC 90028 = experiment: as above; format: cell-based; conditions: read-out: MIC C. albicans ATCC 90028
# Experimental: as §2
# [5] = test system: C. parapsilosis ATCC 22019; experiment: as above; format: cell-based; conditions: Lodderomyces parapsilosis, read-out: MIC C. parapsilosis ATCC 22019
# Experimental: as §2
# human (hACC2) ACC2 = human (hACC2) ACC2 (Homo sapiens, UniProt O00763); experiment: In vitro Acetyl-CoA Carboxylase (ACC) inhibition assay (ADP-Glo), hACC2; format: biochemical
# Chain of human (hACC2) ACC2 (O00763 whole entry): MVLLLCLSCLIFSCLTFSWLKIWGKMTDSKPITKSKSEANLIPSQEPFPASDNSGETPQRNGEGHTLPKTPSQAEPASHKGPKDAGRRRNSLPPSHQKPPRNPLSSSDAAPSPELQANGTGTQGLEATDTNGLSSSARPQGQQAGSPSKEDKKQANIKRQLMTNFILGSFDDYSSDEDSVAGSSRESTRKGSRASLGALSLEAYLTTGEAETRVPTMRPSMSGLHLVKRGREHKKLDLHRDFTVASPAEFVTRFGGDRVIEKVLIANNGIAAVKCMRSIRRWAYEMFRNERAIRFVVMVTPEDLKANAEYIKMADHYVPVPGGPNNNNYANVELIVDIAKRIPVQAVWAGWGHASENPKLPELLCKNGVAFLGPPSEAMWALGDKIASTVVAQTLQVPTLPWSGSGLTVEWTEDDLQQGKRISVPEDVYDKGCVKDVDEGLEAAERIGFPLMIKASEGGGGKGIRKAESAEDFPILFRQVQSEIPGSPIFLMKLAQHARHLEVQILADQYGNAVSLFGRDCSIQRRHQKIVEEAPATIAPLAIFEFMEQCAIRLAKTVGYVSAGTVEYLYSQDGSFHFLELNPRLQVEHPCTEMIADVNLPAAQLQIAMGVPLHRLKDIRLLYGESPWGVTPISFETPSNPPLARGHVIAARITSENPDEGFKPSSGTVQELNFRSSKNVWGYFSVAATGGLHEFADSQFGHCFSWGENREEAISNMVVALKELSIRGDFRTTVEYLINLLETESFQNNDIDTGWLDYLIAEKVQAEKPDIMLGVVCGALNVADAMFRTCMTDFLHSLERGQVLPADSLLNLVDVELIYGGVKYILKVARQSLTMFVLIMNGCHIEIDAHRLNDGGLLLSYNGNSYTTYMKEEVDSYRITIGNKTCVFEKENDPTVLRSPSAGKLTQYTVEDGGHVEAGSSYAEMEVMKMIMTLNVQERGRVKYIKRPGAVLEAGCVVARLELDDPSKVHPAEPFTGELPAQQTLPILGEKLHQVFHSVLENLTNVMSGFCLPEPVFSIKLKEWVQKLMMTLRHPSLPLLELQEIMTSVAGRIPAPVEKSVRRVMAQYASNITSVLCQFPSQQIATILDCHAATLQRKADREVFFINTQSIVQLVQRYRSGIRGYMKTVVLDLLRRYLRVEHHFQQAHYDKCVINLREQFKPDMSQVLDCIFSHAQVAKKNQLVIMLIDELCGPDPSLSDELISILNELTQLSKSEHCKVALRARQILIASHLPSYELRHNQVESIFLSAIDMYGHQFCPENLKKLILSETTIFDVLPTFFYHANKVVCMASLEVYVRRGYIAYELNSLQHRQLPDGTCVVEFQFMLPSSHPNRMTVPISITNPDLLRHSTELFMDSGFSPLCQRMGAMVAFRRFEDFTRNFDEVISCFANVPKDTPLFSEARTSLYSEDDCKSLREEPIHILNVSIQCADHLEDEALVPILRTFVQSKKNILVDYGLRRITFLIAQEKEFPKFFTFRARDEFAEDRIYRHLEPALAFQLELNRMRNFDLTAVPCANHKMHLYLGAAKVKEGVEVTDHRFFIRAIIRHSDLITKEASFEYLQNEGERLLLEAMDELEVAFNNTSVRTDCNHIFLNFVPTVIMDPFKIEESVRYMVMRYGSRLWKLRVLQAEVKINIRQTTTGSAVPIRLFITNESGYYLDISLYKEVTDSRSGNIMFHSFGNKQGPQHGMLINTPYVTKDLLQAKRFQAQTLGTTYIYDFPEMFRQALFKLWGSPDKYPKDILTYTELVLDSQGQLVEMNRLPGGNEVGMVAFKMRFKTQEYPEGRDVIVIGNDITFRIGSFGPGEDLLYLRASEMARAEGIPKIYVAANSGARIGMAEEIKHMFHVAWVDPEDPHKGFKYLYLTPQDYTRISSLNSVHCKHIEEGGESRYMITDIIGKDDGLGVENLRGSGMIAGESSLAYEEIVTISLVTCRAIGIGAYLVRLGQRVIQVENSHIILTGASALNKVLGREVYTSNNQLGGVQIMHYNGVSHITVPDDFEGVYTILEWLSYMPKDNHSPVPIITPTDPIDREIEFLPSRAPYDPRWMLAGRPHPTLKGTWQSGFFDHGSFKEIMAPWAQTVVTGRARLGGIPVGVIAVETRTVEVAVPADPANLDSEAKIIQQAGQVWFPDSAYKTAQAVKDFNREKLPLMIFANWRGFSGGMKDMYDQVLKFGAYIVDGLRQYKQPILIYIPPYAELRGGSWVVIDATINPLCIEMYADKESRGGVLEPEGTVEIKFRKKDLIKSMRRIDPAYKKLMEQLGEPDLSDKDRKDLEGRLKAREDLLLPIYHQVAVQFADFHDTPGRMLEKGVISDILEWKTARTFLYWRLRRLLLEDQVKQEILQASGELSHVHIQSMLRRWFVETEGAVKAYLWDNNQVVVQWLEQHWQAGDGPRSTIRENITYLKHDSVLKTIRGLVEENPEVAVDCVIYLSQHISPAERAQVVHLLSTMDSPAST
# Experimental: The detailed procedure is as follows. […] 10 μL ADP glo reagent was added. […] 20 μL kinase detection reagent was added.
# “NA” stands for “not assayed.”
# [6] = read-out: Concentration at 90% Inhibition Fv, Table 4a, 48 hours
# [7] = read-out: Concentration at 90% Inhibition Fv, Table 4b, 48 hours
SMILES,IC90 [1] [µg/mL],"Concentration at 90% Inhibition Fm ([1]; Table 4b, 48 hours)","IC90 (Septoria tritici (St); 48 h, Table 4a) [µg/mL]","IC90 (Septoria tritici (St); 48 h, Table 4b) [µg/mL]","IC90 [2, 6] [µg/mL]","IC90 [2, 7] [µg/mL]",IC90 (Botrtyis cinerea (Bc); Table 4a) [µg/mL],IC90 (Botrtyis cinerea (Bc); Table 4b) [µg/mL],IC90 (Rhizoctonia solani (Rs); Table 4a) [µg/mL],IC90 (Rhizoctonia solani (Rs); Table 4b) [µg/mL],IC90 (Diplodia maydis (Dm); Table 4a) [µg/mL],IC90 (Diplodia maydis (Dm); Table 4b) [µg/mL],IC90 ([3]; Table 4a) [µg/mL],IC90 ([3]; Table 4b) [µg/mL],"IC90 ([4]; 48 h, Table 4a) [µg/mL]","IC90 ([4]; 48 h, Table 4b) [µg/mL]","MIC (C. krusei ATCC 6258; ATCC6258, 48 h) [µg/mL]","MIC (C. albicans ATCC 90028; ATCC90028, 48 h) [µg/mL]","MIC ([5]; ATCC22019, 48 h) [µg/mL]",IC50 (human (hACC2) ACC2) [nM],also measured
"COc1ccc(F)cc1[C@H](Cn1c(=O)n(C(C)(C)C(=O)N2CCCCC2)c(=O)c2c(C)c(-n3cccn3)sc21)OC1CCOCC1 [Compound I-8, (R)-1-(2-(5-fluoro-2-methoxyphenyl)-2-((tetrahydro-2H-pyran-4-yl)oxy)ethyl)-5-methyl-3-(2-methyl-1-oxo-1-(piperidin-1-yl)propan-2-yl)-6-(1H-pyrazol-1-yl)thieno[2,3-d]pyrimidine-2,4(1H,3H)-dione]",0.08,AA (“AA” provided a compound concentration of 0.08 ppm at 90% inhibition of fungal pathogens),> 50,> 50,2,2,2,2,> 50,10,10,2,2,2,> 50,> 50,0.25 to 1,0.25 to 1,0.25 to 1,10 to 40,
"COc1ccccc1[C@H](Cn1c(=O)n(C(C)(C)C(=O)NC(C)C)c(=O)c2c(C)c(-n3cccn3)sc21)OC1CCOCC1 [Compound I-11, (R)—N-isopropyl-2-(1-(2-(2-methoxyphenyl)-2-((tetrahydro-2H-pyran-4-yl)oxy)ethyl)-5-methyl-2,4-dioxo-6-(1H-pyrazol-1-yl)-1,4-dihydrothieno[2,3-d]pyrimidin-3(2H)-yl)-2-methylpropanamide]",2,B (“B” provided a compound concentration of 2.0 ppm at 90% inhibition of fungal pathogens),> 50,> 50,> 50,10,> 50,10,> 50,> 50,> 50,10,> 50,10,> 50,> 50,> 4.1,> 4.1,> 4.1,10 to 40,
"COc1ccccc1[C@H](Cn1c(=O)n(C(C)(C)C(=O)N2CCCC2)c(=O)c2c(C)c(-n3cccn3)sc21)OC1CCOCC1 [Compound I-12, (R)-1-(2-(2-methoxyphenyl)-2-((tetrahydro-2H-pyran-4-yl)oxy)ethyl)-5-methyl-3-(2-methyl-1-oxo-1-(pyrrolidin-1-yl)propan-2-yl)-6-(1H-pyrazol-1-yl)thieno[2,3-d]pyrimidine-2,4(1H,3H)-dione]",,,,,,,> 50,10,2,2,> 50,10,10,2,,,,,,3 to 10,"IC90 ([1]; Table 4a, 48 hours): 0.4 µg/mL; IC90 ([1]; Table 4b, 48 hours): 0.4 µg/mL; Concentration at 90% Inhibition St (Septoria tritici (St); Table 4b, 48 hours): D (“D” provided a compound concentration of >50 ppm at 90% inhibition of fungal pathogens); IC90 (Septoria tritici (St); Table 4a, 48 hours): > 50 µg/mL; IC90 ([2]; Table 4a, 48 hours, read-out: Concentration at 90% Inhibition Fv): > 50 µg/mL; IC90 ([2]; Table 4b, 48 hours, read-out: Concentration at 90% Inhibition Fv): 10 µg/mL; IC90 ([4]; Table 4a, 48 hours): > 50 µg/mL; Concentration at 90% Inhibition Pc ([4]; Table 4b, 48 hours): D (“D” provided a compound concentration of >50 ppm at 90% inhibition of fungal pathogens); MIC (C. krusei ATCC 6258; ATCC6258, 3 replicates, MIC recorded at 48 h): 2.1 to 4 µg/mL; MIC (C. albicans ATCC 90028; ATCC90028, 3 replicates, MIC recorded at 48 h): 2.1 to 4 µg/mL; MIC ([5]; ATCC22019, 3 replicates, MIC recorded at 48 h): > 4.1 µg/mL"
